# Assay results taken from US5707620A (priority 1995, dated 1998).
# “Also recorded” adds a separate entry of the source. *1 amine or outer side, *2 acyl side, *3 side chain or, on linkers, in order; H or OH if unused. Where a SMILES comes first, the peptide text is derived from it. Where no end group is shown, it is not given here. [ ]: non-standard residue; d: D form. The star is where a group is joined. pNA = O=[N+]([O-])c1ccc(N*)cc1; Tos = Cc1ccc(S(=O)(=O)*)cc1; CO = O=C([*:1])[*:2]
# Assays:
# Human plasma = conditions: in vivo
# Lys-gingipain [1] = biological target: T1, Lys-gingipain (Porphyromonas gingivalis, UniProt B2RLK2, A715G/D467N/G568E/I573V/L455V); assay type: biochemical
# Arg-gingipain [2] = assay type: biochemical, Porphyromonas gingivalis
# Arg-gingipain [3] = conditions: cited from earlier work
# Lys-gingipain [4] = biological target: T1, Lys-gingipain; assay type: biochemical; remark: listed apart in the source
# sheep red blood cells = assay type: cell-based
# Lys-gingipain [5] = biological target: T1, Lys-gingipain; assay type: biochemical; remark: listed apart in the source
# anti-peptide antibody = conditions: rabbit, in vivo
# anti-protein antibodies = conditions: rabbit, in vivo
molecule,measurement,setting,value
c1cnc2c(c1)ccc1cccnc12,effect on VPE by Lys-gingipain complex-treated human plasma,Human plasma,increased
CC(C)[C@H](NC(=O)[C@H](CCCNC(=N)N)NC(=O)N[C@@H](Cc1ccccc1)C(=O)O)C(=O)N[C@H](C=O)CCCNC(=N)N [Antipain] ({Phe-CO}-Arg-Val-Arg-aldehyde),% Activity,Lys-gingipain [1],98%
same,inhibition of Lys-gingipain activity (in words),Lys-gingipain [1],failed to inhibit; also recorded: not sensitive to inhibition; also recorded: resistant to inhibition
same,inhibition of Arg-gingipain (in words),Arg-gingipain [2],effective inhibitors
"CC(C)C[C@H](NC(=O)[C@H]1O[C@@H]1C(=O)O)C(=O)NCCCCN=C(N)N [E-64, trans-epoxysuccinyl-L-leucylamide-(4-guanidino) butane]",% Activity,Lys-gingipain [1],100%
same,inhibition of Lys-gingipain activity (in words),Lys-gingipain [1],failed to inhibit Lys-gingipain at all; also recorded: not sensitive to inhibition; also recorded: resistant to inhibition
same,"inhibition of Arg-gingipain, previously shown",Arg-gingipain [3],"inhibit Arg-gingipain, but not in the normal equimolar manner"
"O=C(O)CN(CCN(CC(=O)O)CC(=O)O)CC(=O)O [EDTA, ethylenediamine-tetraacetic acid]",% Activity,Lys-gingipain [1],90%
same,inhibition of Lys-gingipain activity (in words),Lys-gingipain [1],failed to inhibit; also recorded: not sensitive to inhibition; also recorded: resistant to inhibition; also recorded: insensitive
same,inhibition of Arg-gingipain (in words),Arg-gingipain [2],effective inhibitors
"NC(N)=NCCCC(NC(=O)C1CCCN1C(=O)C(N)Cc1ccccc1)C(=O)CCl (stereo not drawn) [FPRCK, Phe-Pro-Arg-CK]",% Activity,Lys-gingipain [1],5%
same,inhibition of Lys-gingipain activity (in words),Lys-gingipain [1],effective inhibitors of both enzymes; also recorded: sensitivity
same,inhibition of Arg-gingipain (in words),Arg-gingipain [2],effective inhibitors of both enzymes
"NCC(=O)NCC(=O)O [Gly--Gly, Glycyl-glycine] (H-Gly-Gly-OH)",% Activity,Lys-gingipain [1],50%
same,inhibition of Lys-gingipain activity (in words),Lys-gingipain [1],inhibitory; also recorded: inhibited
same,stimulation of hydrolysis of Bz-L-Arg-pNa by Arg-gingipain,Arg-gingipain [2],strongly stimulates
"CC(C)C[C@H](NC(=O)[C@H](N)C(C)C)C(=O)N[C@@H](CCCCN)C(=O)Nc1ccc([N+](=O)[O-])cc1 [HD--Val--Leu--Lys--pNa, D-Val-Leu-Lys-pNA] (H-[dV]-Leu-Lys-pNA)",Vmax,Lys-gingipain [4],133 mmol/min
"CC(C)[C@@H](N)C(=O)N[C@@H](Cc1ccccc1)C(=O)N[C@@H](CCCCN)C(=O)Nc1ccc([N+](=O)[O-])cc1 [HD--Val--Phe--Lys--pNa, H-D-Val-Phe-Lys-pNa] (H-[dV]-Phe-Lys-pNA)",Vmax,Lys-gingipain [4],180 mmol/min
NC(=O)CI [Iodoacetamide],inhibition of Lys-gingipain activity (in words),Lys-gingipain [1],inhibited; also recorded: sensitivity
O=C(O)CI [Iodoacetate],inhibition of Lys-gingipain activity (in words),Lys-gingipain [1],inhibited; also recorded: sensitivity
CC(=O)N[C@@H](CC(C)C)C(=O)N[C@@H](CC(C)C)C(=O)N[C@H](C=O)CCCNC(=N)N [Leupeptin],% Activity,Lys-gingipain [1],100%
same,inhibition of Lys-gingipain activity (in words),Lys-gingipain [1],failed to inhibit; also recorded: not sensitive to inhibition; also recorded: resistant to inhibition; also recorded: insensitive
same,inhibition of Arg-gingipain (in words),Arg-gingipain [2],effective inhibitors
CCN1C(=O)C=CC1=O [N-Ethylmaleimide],inhibition of Lys-gingipain activity (in words),Lys-gingipain [1],inhibited
CN1C(=O)C=CC1=O [N-methylmaleimide],inhibition of Lys-gingipain activity (in words),Lys-gingipain [1],sensitivity
"Cc1ccc(S(=O)(=O)NCC(=O)N2CCC[C@H]2C(=O)N[C@@H](CCCCN)C(=O)Nc2ccc([N+](=O)[O-])cc2)cc1 [N-p-tosyl-Gly--Pro--Lys--pNa, N-p-tosyl-Gly-Pro-Lys-pNa] (Tos-Gly-Pro-Lys-pNA)",Vmax,Lys-gingipain [4],215 mmol/min
same,ranking as substrate by ratio Vmax/Km,Lys-gingipain [4],best substrate
O=S(=O)(F)Cc1ccccc1 [Phenylmethylsulfonyl fluoride],% Activity,Lys-gingipain [1],100%
same,inhibition of Lys-gingipain activity (in words),Lys-gingipain [1],not sensitive to inhibition; also recorded: resistant to inhibition
"Cc1ccc(S(=O)(=O)N[C@@H](CCCCN)C(=O)CCl)cc1 [TLCK, tosyl-L-lysine chloromethyl ketone]",% Activity,Lys-gingipain [1],0%
same,inhibition of Lys-gingipain activity (in words),Lys-gingipain [1],effective inhibitors of both enzymes; also recorded: sensitivity
same,inhibition of Arg-gingipain (in words),Arg-gingipain [2],effective inhibitors of both enzymes
same,Hemagglutinating Titer of Gingipain-1 with effector,sheep red blood cells,NHA
same,effect on the hemagglutinating activity of purified fractions (in words),sheep red blood cells,neither did treatment by the irreversible proteinase inhibitor TLCK
"NCCCC[C@H](NC(=O)OCc1ccccc1)C(=O)Nc1ccc([N+](=O)[O-])cc1 [Z--L--Lys--pNa, Z-L-Lysine-p-Nitroanilide]",Vmax,Lys-gingipain [4],40 mmol/min
[Cl-].[Cl-].[Zn+2] [ZnCl2],inhibition of Lys-gingipain activity (in words),Lys-gingipain [1],failed to inhibit
same,inhibition of Arg-gingipain (in words),Arg-gingipain [2],effective inhibitors
N=C(N)NCCC[C@H](N)C(=O)O [arginine],Hemagglutinating Titer of Culture fluid with effector,sheep red blood cells,NHA
same,Hemagglutinating Titer of Gingipain-1 with effector,sheep red blood cells,NHA
same,Hemagglutinating Titer of HGP with effector,sheep red blood cells,NHA
same,Hemagglutinating Titer of Lys-gingipain with effector,sheep red blood cells,NHA
same,effect on the hemagglutinating activity of purified fractions (in words),sheep red blood cells,inhibited by arginine
N[C@@H](CS)C(=O)O [cysteine],Hemagglutinating Titer of Gingipain-1 with effector,sheep red blood cells,NHA
same,effect on the hemagglutinating activity of purified fractions (in words),sheep red blood cells,no effect
same,concentration required for full activity,Lys-gingipain [5],50 mM
same,effect on enzyme,Lys-gingipain [5],denatured
same,effectiveness as reducing agent for activation of the enzyme,Lys-gingipain [5],most effective reducing agent
same,time after which activity could be detected,Lys-gingipain [5],30 s
same,time to full activation,Lys-gingipain [5],5 min
NCCCC[C@H](N)C(=O)O [lysine],Hemagglutinating Titer of Gingipain-1 with effector,sheep red blood cells,NHA
N=C(N)c1ccc(N)cc1 [p-Aminobenzamidine],% Activity,Lys-gingipain [1],100%
same,inhibition of Lys-gingipain activity (in words),Lys-gingipain [1],failed to inhibit
same,inhibition of Arg-gingipain (in words),Arg-gingipain [2],effective inhibitors
MAP-attached peptide: first 15 N-Terminal amino acids of 60 kDa catalytic subunit attached to the multiple antigen peptide (MAP) resin (DVYTDHGDLYNTPVR; not fully specified),anti-peptide antibody titer,anti-peptide antibody,high
same,antibody response against the protein,anti-protein antibodies,quite low
"soybean trypsin inhibitor: soybean trypsin inhibitor (protein, UniProt P01070 25-205, looked up) Trypsin inhibitor A: DFVLDNEGNPLENGGTYYILSDITAFGGIRAAPTGNERCPLTVVQSRNELDKGIGTIISSPYRIRFIAEGHPLSLKFDSFAVIMLCVGIPTEWSVVEDLPEGPAVKIGENKDAMDGWFRLERVSDDEFNNYKLVFCPQQAEDDKCGDIGISIDHDDGTRRLVVSKNKPLVVQFQKLDKESL",effect on VPE by Lys-gingipain complex-treated human plasma,Human plasma,inhibited
